This note sets out measurements from patent EP0170180A1, “Substituted guanidinobenzoic-acid phenyl esters, process for their production and their use as pharmaceutical preparations” (SCHERING AKTIENGESELLSCHAFT, priority 1984, dated 1986).

The target of test [1] is T1, Humanakrosin (Homo sapiens, UniProt P10323).
T1 construct: endogenous in cells; host or cells: intact human spermatozoa (Humansperma)
Nature of the test: Gelatinolysis test: acrosin inhibition in intact human spermatozoa (halo formation, semiquantitative). The format is cell-based. To be noted: Humansperma preincubated with inhibitor. The text has this: Dieser Test ist ebenfalls als Bestandteil des Primärscreenings anzusehen. Für die erwünschte kontrazeptive Wirkung eines Akrosininhibitors ist es - neben der eigentlichen Akrosinhemmung am isolierten Enzym - von essentieller Bedeutung, daß ein solcher Inhibitor in der Lage ist, das Plasmalemm und die äußere akrosomale Membran eines intakten Spermiums zu durchdringen, da Akrosin an der inneren akrosomalen Membran lokalisiert ist.
Als besonders geeignet für die Untersuchung dieser speziellen Fragestellung hat sich das Gelatinolyse-Modell nach P. Gaddum und R.Z. Blandau (Science 170: 749 - 751), modifiziert nach W.B. Schill (Int. J. Andrology 4: 25 - 38) und nach eigenen Ausarbeitungen erwiesen. Bei dieser Methode wird mit unbelichteten, fixierten und mit Methylenblau gefärbten Filmplatten für die Autoradiographie gearbeitet, deren Gelatineschicht durch die lytische Aktivität von Akrosin aufgelöst wird. Als Folge bilden sich um die Spermienköpfe gut sichtbare, weite Höfe (sog. Halo-Bildung/ Lysishof). Bei einer Hemmung von Akrosin unterbleibt die Ausbildung dieser Höfe.
Um die Penetrierfähigkeit eines erwiesenen Akrosininhibitors und damit die Hemmung von Akrosin am intakten Spermium zu untersuchen, wird Humansperma mit mehreren Konzentrationen des Inhibitors präinkubiert. […]

Another test relates to Maussperma. The experiment in a line: In vitro fertilisation (mouse). The format is cell-based, Maus. Conditions: for % Fertilisation: after 24 h; for Anzahl 2-Zellen-Embryos: counted after 24 h. The text has this: Dieser Test erlaubt eine erste Überprüfung der kontrazeptiven Effektivität sowie eine Überprüfung des Wirkprinzips per se:
In einem Mediumtropfen nach Brinster, Whitten und Whittingham, der den Inhibitor enthält, werden zunächst die durch Superovulation gewonnenen Oocyten überführt. Anschließend wird ein Aliquot des unbehandelten Maussperma hinzupipettiert. Die Konzentrationen des Inhibitors werden so gewählt, daß keine Hemmung der Motilität vorliegt. 24 Stunden später wird die Anzahl der geteilten und nicht geteilten Oocyten und damit die Fertilitätsrate bestimmt.
Es wird also überprüft, ob der zu untersuchende Akrosininhibitor, appliziert in einem System, in dem es zum unmittelbaren Kontakt zwischen Oocyte und Spermium kommt, eine Fertilisation hemmen kann - ohne daß eine Hemmung der Motilität der Spermien vorliegt.

Another test concerns Kaninchen. Nature of the test: In vivo fertilisation (rabbit) after artificial insemination of preincubated sperm. Conditions: sperm preincubated with 500 µg/ml, 36 h after insemination; for % geteilt: fertility rate; for geteilt: number of divided oocytes; for nicht geteilt: number of undivided oocytes. The text has this: Dieser Test ermöglicht Aussagen zur kontrazeptiven Effektivität unter in-vivo-Bedingungen:
Kaninchensperma, das mit Hilfe einer künstlichen Vagina gewonnen wird, wird mit dem zu untersuchenden Akrosininhibitor präinkubiert. Anschließend werden zur Induktion einer Superovulation mit PMS (pregnant mare serum) vorbehandelte Kaninchenweibchen mit dem vorbehandelten Sperma artifiziell inseminiert. Zur Auslösung der […] erhalten sie abschließend HCG (human chorionic gonadotropin).
36 Stunden später werden die Tiere getötet, die Ovidukte und Uteri entnommen und gespült, um die frühen Embryonen bzw. ungeteilten Oocyten zu gewinnen und anhand deren Anzahl die Fertilisationsrate zu bestimmen.

Test [2] deals with T1, Humanakrosin. Nature of the test: Acrosin (human) assay: inhibition of isolated human acrosin. Format: biochemical. Conditions: Substrat: Benzoyl-L-arginyleth.-ester; read-out: I50. From the text:
Dieser Test stellt das eigentliche Primärscreening dar. Er gibt einen Anhaltspunkt über die inhibitorische Effektivität einer Verbindung am Enzym (Humanakrosin) selbst, erlaubt aber noch keine Aussage über die biologische Effektivität (d.h. Hemmung von Akrosin im intakten Spermium sowie kontrazeptive Wirksamkeit) der untersuchten Verbindungen.
Das durch eine saure Extraktion aus Humansperma gewonnene Enzym Akrosin wird mit verschiedenen Konzentrationen des potentiellen Inhibitors inkubiert, und es wird diejenige Konzentration bestimmt, die zu einer 50 %igen Hemmung der Akrosinaktivität führt. Die […] Akrosin spaltet physiologischerweise bevorzugt Arginin- und Lysin-Gruppen. Deshalb wird für die in vitro-Untersuchung zur Aktivitätsbestimmung von Akrosin ein Benzoyl-Arginin-Äthylester als Substrat verwendet.

Counter-ions that a name gives are not always drawn.

T1 sequence (P10323 20-421): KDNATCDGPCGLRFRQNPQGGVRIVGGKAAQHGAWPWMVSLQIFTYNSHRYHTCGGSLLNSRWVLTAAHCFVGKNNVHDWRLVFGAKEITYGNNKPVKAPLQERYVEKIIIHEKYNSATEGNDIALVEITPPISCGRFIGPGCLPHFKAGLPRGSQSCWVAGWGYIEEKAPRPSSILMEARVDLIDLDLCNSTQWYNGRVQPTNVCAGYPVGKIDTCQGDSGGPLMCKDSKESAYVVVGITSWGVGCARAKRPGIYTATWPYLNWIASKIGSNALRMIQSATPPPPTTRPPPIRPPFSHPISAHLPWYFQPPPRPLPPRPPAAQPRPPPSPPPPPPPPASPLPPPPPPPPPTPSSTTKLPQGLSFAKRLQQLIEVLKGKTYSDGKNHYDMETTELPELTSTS

On to `COC(=O)c1ccccc1OC(=O)c1ccc(NC(=N)N)cc1` [Verbindung 1, 4-Guanidinobenzoesäure-(2-methoxycarbonylphenyl)-ester Hydrochlorid, reference compound], for which the “Gelatinolyse: Hemmung der Akrosinaktivität” value on Humanakrosin [1] (1 µg/ml) is recorded as “++ bis +++”. Also, the “Gelatinolyse: Hemmung der Akrosinaktivität” value at Humanakrosin [1] (10 µg/ml) was “+ bis ++”. Also, in the test on Maussperma (5 ug/ml), the “% Fertilisation” value was 78% and the “Anzahl 2-Zellen-Embryos” value is listed as 195. Besides, in the test on Kaninchen, the “% geteilt” value came to 51%, the geteilt was 88 and the nicht geteilt is on record as 83. Further, on Humanakrosin [2], the IC50 came out at 0.733 µM.
For the compound `N#Cc1ccccc1OC(=O)c1ccc(NC(=N)N)cc1` [Verbindung 2, 4-Guanidinobenzoesäure-(2-cyanophenyl)-ester Hydrochlorid], in the test with Maussperma (5 ug/ml), the “% Fertilisation” value is on record as 59% and the “Anzahl 2-Zellen-Embryos” value amounted to 134. Besides, in the test on Maussperma (50 ug/ml), the “% Fertilisation” value is given as 7% and the “Anzahl 2-Zellen-Embryos” value was 22. For the same compound, in the test on Kaninchen, the “% geteilt” value was found to be 1%, the geteilt turned out to be 2 and the nicht geteilt was found to be 158. Besides, the IC50 at Humanakrosin [2] came to 0.04 µM.
As for `CCOC(=O)c1cccc(OC(=O)c2ccc(NC(=N)N)cc2)c1` [Verbindung 3, 4-Guanidinobenzoesäure-(3-ethoxycarbonylphenyl)-ester Hydrochlorid], in the test with Kaninchen, the “% geteilt” value is 1%. Besides, at Humanakrosin [2], the IC50 turned out to be 0.2 µM.
On to `COC(=O)c1cccc(OC(=O)c2ccc(NC(=N)N)cc2)c1` [Verbindung 5, 4-Guanidinobenzoesäure-(3-methoxycarbonylphenyl)-ester Hydrochlorid], for which the IC50 at Humanakrosin [2] turned out to be 0.55 µM.
Still for that read-out and setting: for `N=C(N)Nc1ccc(C(=O)Oc2cccc(C(N)=O)c2)cc1` [Verbindung 6, 4-Guanidinobenzoesäure-(3-carbamoylphenyl)-ester Hydrochlorid] the value was 0.32 µM.
